Key:
[1] = Particle size distribution, Malvern Hydro2000S (A); format: physicochemical; conditions: crystals of Example 1, seeded crystallisation from acetone, no milling
Description: The particle size distribution of olmesartan medoxomil (I) is measured utilizing: Instrument model: Malvern; Dispersion unit: Hydro2000S (A); Particle refraction index of sample: 1.427; Absorption: 0.1; Dispersant refraction index: 1.468 and Size range: 0.020-2000 μm.

[2] = Minimum ignition energy and powder resistivity of the powder; format: physicochemical; conditions: observed by the present inventors; process safety for milling

For `CCCc1nc(C(C)(C)O)c(C(=O)OCc2oc(=O)oc2C)n1Cc1ccc(-c2ccccc2-c2nnn[nH]2)cc1` [olmesartan medoxomil, 4-(1-hydroxy-1-methylethyl)-2-propyl-1-[[2′-(1H-tetrazol-5-yl) [1, 1′-biphenyl]-4-yl]methyl]-1H-imidazole-5-carboxylic acid (5-methyl-2-oxo-1,3-dioxol-4-yl)methyl ester], which “particle size distribution d10” value [1] is on record?
Its value is 0.984 μm.

What about the “particle size distribution d50” value [1] of the same compound?
The value was 8.484 μm.

And the “particle size distribution d90” value [1]?
The value was 18.756 μm.

And the minimum ignition energy [2]?
The minimum ignition energy was “less than 3 mJ”.

What about the powder resistivity [2] of the same compound?
Its powder resistivity is “very high”.

From patent US20150225380A1, “Novel Method to Obtain Olmesartan Medoxomil With Reduced Particle Size” (LUPIN LIMITED, priority 2012, published 2015)
